Patent publication US20240278014A1, “METHODS AND PHARMACEUTICAL FORMULATIONS FOR MODULATING THE PROPERTIES OF THE BLOOD LABYRINTH BARRIER” (Cochlear Limited, priority 2021, published 2024)

What was measured:
[1] = Perilymph fluorescein as proxy for BLB permeability after cochlear implantation; format: in vivo, guinea pigs; conditions: on average; same animal; perilymph sampled two hours after start of IV infusion
Description: In some embodiments, methods for assessing a more permeable than normal blood labyrinth barrier (but not treating it or preventing it from becoming more permeable) involve injecting a pharmaceutical formulation functioning as a marker into the blood stream of a recipient, measuring the amount of formulation in the perilymph as a function of time. As the barrier becomes more permeable after implantation, the formulation may be detected in greater quantities in the perilymph. In this type of experiment, the data may be normalized to the contralateral ear (without an implant), which allows data to be collected from a single subject serving as its own “control.”
We measured the time course of BLB compromise following cochlear implantation in guinea pigs to characterize the development of increasing BLB permeability relating to the BLB disruption that surgical implantation causes.
Seven days following cochlear implantation, the perilymph was sampled at 126 minutes (non-implanted) and 127 minutes (implanted) after the start of IV fluorescein infusion began (shown in solid symbols). Open symbols show the same data corrected to a sample time beginning at 120 minutes after the start of the infusion, assuming a linear rate of entry through the BLB over time. […] Each sample time represents the mean of samples 1-6 from one ear; lines represent the group (n=5) mean. […]

[2] = guinea pig, in vivo, iv
Description: Fluorescein (20 mM) was administered through a cannula in the jugular vein by continuous intravenous (IV) injection at a rate of 20 μL/minute. […] Implants were placed through a cochleostomy into the basal turn of the scala tympani. Perilymph sampling began two hours after IV infusion began, and the concentration of fluorescein in the perilymph was used as a proxy for BLB permeability. Sampling in the perilymph was accomplished as follows: The cochlear apex was prepared for fluid sampling by building a hydrophobic cup of silicone adhesive around it. When the apex was perforated, the emerging fluid collected in the cup without loss into the middle ear. Ten samples were collected in sequence, with each taking 60 to 90 seconds. […] Fluorescein concentrations were compared for implanted versus non-implanted […], and from ears of non-implanted control animals.

[3] = in vivo; cited from earlier work

With `O=C1OC2(c3ccc(O)cc3Oc3cc(O)ccc32)c2ccccc21` [Fluorescein] the “BLB permeability increase (perilymph fluorescein, implanted versus nonimplanted ear)” value [1] was “two- to three-fold”, the elimination half time [2] was 11 min and the “volume of calculated time course” value [2] was 183 mL.

In the case of lipopolysaccharide [LPS], the “effect on BLB” value [3] is given as “induce systemic inflammation, compromising the BLB”.
